# Data reported in patent publication US20220363705A1, “METHOD FOR MANUFACTURING REVAUDIOSIDE-D-CONTAINING CRYSTALLIZED PRODUCT, AND REVAUDIOSIDE-D-CONTAINING CRYSTALLIZED PRODUCT” (SUNTORY HOLDINGS LIMITED, priority 2019, published 2022).
# Assay: Saturated solubility in ethanol solvent (excess loaded, stirred 24 hours, 0.45-um filtrate measured with LCMS)
# Assay type: physicochemical
# Conditions: for saturated solubility used in calculation of the degree of supersaturation: 90% by mass of EtOH, 10° C.; for saturated dissolution concentration: 90% ethanol solvent at 10° C., according to FIG. 1
# Procedure: The saturated solubility is herein measured according to the following method. That is, 100 ml of a solvent having a predetermined ethanol concentration (w/w) is placed in a container (having a volume of 100 ml or 200 ml, suitably 200 ml), the liquid temperature is set to 10° C. by a water bath in advance, and then the solvent is stirred at 200 rpm, and a target substance is loaded in an excessive amount (amount until suspension is made). After 24 hours, a filtrate is obtained by a 0.45-um membrane filter, and the amount of the target substance (RebA or RebD) included in the filtrate is measured with LCMS. LCMS here used is suitably LCMS 8050 manufactured by Shimadzu Corporation.
# Specifically, 100 ml of a solvent having a predetermined ethanol concentration (w/w) was placed in a […] glass container (separable round-bottomed flask, Tokyo Rikakikai Co., Ltd.), set to a predetermined temperature by a water bath (PCC-7000, Tokyo Rikakikai Co., Ltd.) in advance, and then stirred (SPZ-100, Tokyo Rikakikai Co., Ltd.) at 200 rpm, and RebA (J-100, Morita Kagaku Kogyo Co., Ltd.) or RebD (Jining Renewal & Joint International, China) was loaded in an excessive amount (amount until suspension was achieved). After 24 hours, a filtrate was obtained by a 0.45-um membrane filter, the amount of RebA or RebD included in the filtrate was measured with LCMS (LCMS 8050 manufactured by Shimadzu Corporation), and the solubility curve was created. The results are illustrated in FIG. 1.
Compound,saturated solubility used in calculation of the degree of supersaturation [ppm],saturated dissolution concentration
"C=C1C[C@@]23CC[C@H]4[C@@](C)(CCC[C@@]4(C)C(=O)O[C@@H]4O[C@H](CO)[C@@H](O)[C@H](O)[C@H]4O)[C@@H]2CC[C@]1(O[C@@H]1O[C@H](CO)[C@@H](O)[C@H](O[C@@H]2O[C@H](CO)[C@@H](O)[C@H](O)[C@H]2O)[C@H]1O[C@@H]1O[C@H](CO)[C@@H](O)[C@H](O)[C@H]1O)C3 [RebA, rebaudioside A]",8270.5,"8,250 ppm"
"C=C1C[C@@]23CC[C@H]4[C@@](C)(CCC[C@@]4(C)C(=O)O[C@@H]4O[C@H](CO)[C@@H](O)[C@H](O)[C@H]4O[C@@H]4O[C@H](CO)[C@@H](O)[C@H](O)[C@H]4O)[C@@H]2CC[C@]1(O[C@@H]1O[C@H](CO)[C@@H](O)[C@H](O[C@@H]2O[C@H](CO)[C@@H](O)[C@H](O)[C@H]2O)[C@H]1O[C@@H]1O[C@H](CO)[C@@H](O)[C@H](O)[C@H]1O)C3 [RebD, rebaudioside D]",99.33,99.3 ppm
